Setting [1] is: CC50, third EC50/CC50 column pair (c7), beside the EC50 of c6.

Structures are written as SMILES. Where only a bound is given, the exact number is not on record here.

For orientation: melting point means the temperature, or range, at which the solid turns liquid. Regarding `CC(C)c1ccccc1/C=C/c1nc(Cc2ccc(Br)cc2)no1` [Compound 175, (E)-3-(4-bromobenzyl)-5-(2-isopropylstyryl)-1,2,4-oxadiazole], the melting point was 81.5 °C. This compound also displayed a CC50 in the data set “in vitro” (CC50, beside the EC50 of c2) greater than 50 µM. In addition, the CC50 in “in vitro” (CC50, beside the EC50 of c4) is greater than 50 µM. The same compound showed a CC50 in “in vitro” (setting [1]) greater than 50 µM.

Compound `Clc1ccc(/C=C/c2nnc(Cc3ccc(Br)cc3)o2)cc1Cl` [Compound 149, 2-(4-bromobenzyl)-5-(3,4-dichlorostyryl)-1,3,4-oxadiazole] came in with a melting point of 164.5 °C. Moreover, the CC50 in the data set “in vitro” (CC50, beside the EC50 of c2) is greater than 50 µM. The compound further registered a CC50 in “in vitro” (CC50, beside the EC50 of c4) greater than 50 µM. In addition, the CC50 in the data set “in vitro” (setting [1]) is greater than 50 µM.

Take `Fc1ccc(/C=C/c2nnc(Cc3ccc(F)c(Br)c3)o2)c(Cl)c1` [Compound 207, 2-(3-bromo-4-fluorobenzyl)-5-(2-chloro-4-fluorostyryl)-1,3,4-oxadiazole]: the melting point is 123 °C. In the data set “in vitro” (CC50, beside the EC50 of c2), this compound yielded a CC50 greater than 50 µM. The compound further showed a CC50 in “in vitro” (CC50, beside the EC50 of c4) greater than 50 µM. The same compound yielded a CC50 in “in vitro” (setting [1]) greater than 50 µM.

Compound `Clc1cccc(Cl)c1/C=C/c1nnc(Cc2ccc(Br)cc2)o1` [Compound 168, 2-(4-bromobenzyl)-5-(2,6-dichlorostyryl)-1,3,4-oxadiazole] returned a melting point of 139.3 °C. Moreover, in the data set “in vitro” (CC50, beside the EC50 of c2), the CC50 is greater than 50 µM. In the data set “in vitro” (CC50, beside the EC50 of c4), this compound gave a CC50 greater than 50 µM. Moreover, in “in vitro” (setting [1]), the CC50 was greater than 50 µM.

The compound `Cc1cc(Cc2nnc(/C=C/c3ccccc3C(C)C)o2)ccc1Br` [Compound 172, 2-(4-bromo-3-methylbenzyl)-5-(2-isopropylstyryl)-1,3,4-oxadiazole] had a melting point of 117.1 °C. The compound also yielded a CC50 in the data set “in vitro” (CC50, beside the EC50 of c2) greater than 50 µM. Also, in the data set “in vitro” (CC50, beside the EC50 of c4), the CC50 was greater than 50 µM. This compound returned a CC50 in the data set “in vitro” (setting [1]) greater than 50 µM.

`Cc1cc(Cc2nnc(/C=C/c3ccc(F)cc3Cl)o2)ccc1Br` [Compound 176, (E)-2-(4-bromo-3-methylbenzyl)-5-(2-chloro-4-fluorostyryl)-1,3,4-oxadiazole] registered a melting point of 119.9 °C. Moreover, the CC50 in the data set “in vitro” (CC50, beside the EC50 of c2) came to 6.53 µM. Also, in the data set “in vitro” (CC50, beside the EC50 of c4), the CC50 was greater than 50 µM. This compound displayed a CC50 in “in vitro” (setting [1]) greater than 50 µM.

As for `Fc1ccc(/C=C/c2nnc(Cc3cccc(Br)c3)o2)c(F)c1` [Compound 189, 2-(3-bromobenzyl)-5-(2,4-difluorostyryl)-1,3,4-oxadiazole], the melting point was 87.7 °C. The same compound yielded a CC50 in “in vitro” (CC50, beside the EC50 of c2) greater than 50 µM. Further, the CC50 in “in vitro” (CC50, beside the EC50 of c4) is greater than 50 µM. Also, the CC50 in the data set “in vitro” (setting [1]) is greater than 50 µM.

Compound `Clc1ccc(-c2ccccc2/C=C/c2nnc(Cc3ccc(Br)cc3)o2)cc1` [Compound 153, 2-(4-bromobenzyl)-5-(2-(4′-chloro-[1,1′-biphenyl]-2-yl)vinyl)-1,3,4-oxadiazole] yielded a melting point of 123.7 °C. In “in vitro” (CC50, beside the EC50 of c2), this compound displayed a CC50 greater than 50 µM. In addition, in “in vitro” (CC50, beside the EC50 of c4), the CC50 is greater than 50 µM. This compound also showed a CC50 in the data set “in vitro” (setting [1]) greater than 50 µM.

The compound `Clc1cccc(/C=C/c2nnc(Cc3ccc(Br)cc3)o2)c1` [Compound 167, 2-(4-bromobenzyl)-5-(3-chlorostyryl)-1,3,4-oxadiazole] yielded a melting point of 105.1 °C. For the same compound, the CC50 in “in vitro” (CC50, beside the EC50 of c2) is greater than 50 µM. The compound further showed a CC50 in the data set “in vitro” (CC50, beside the EC50 of c4) greater than 50 µM. The CC50 in “in vitro” (setting [1]) was greater than 50 µM.

In turn, `Cc1ccccc1Sc1nnc(CCn2nc(C)c(Br)c2C)o1` [Compound 54, 2-(2-(4-bromo-3,5-dimethyl-1H-pyrazol-1-yl)ethyl)-5-(o-tolylthio)-1,3,4-oxadiazole] yielded a melting point of 103.6 °C. The CC50 in “in vitro” (CC50 B/Florida/04/2006, cytotoxicity in the B/Florida/04/2006 assay) is greater than 50 µM.

`Cc1ccc(Cc2nnc(/C=C/c3ccc(F)cc3F)o2)cc1Br` [Compound 262, 2-(3-bromo-4-methylbenzyl)-5-(2,4-difluorostyryl)-1,3,4-oxadiazole] came in with a melting point of 132 °C.

In the case of `Fc1ccc(/C=C/c2nnc(Cc3cccc(C(F)F)c3)o2)c(Cl)c1` [Compound 299, 2-(2-chloro-4-fluorostyryl)-5-(3-(difluoromethyl)benzyl)-1,3,4-oxadiazole], the melting point was found to be 108.1 °C.

In turn, `Cn1cc(Cc2nnc(/C=C/c3ccc(F)cc3Cl)o2)c2ccccc21` [Compound 213, 2-(2-chloro-4-fluorostyryl)-5-((1-methyl-1H-indol-3-yl)methyl)-1,3,4-oxadiazole] yielded a melting point of 148.1 °C.

`Fc1cc(F)c(/C=C/c2nnc(Cc3cccc(Br)c3)o2)c(Cl)c1` [Compound 245, 2-(3-bromobenzyl)-5-(2-chloro-4,6-difluorostyryl)-1,3,4-oxadiazole] returned a melting point of 112 °C.

On to `Fc1ccc(/C=C/c2nnc(Cc3cc(Br)ccn3)o2)c(Cl)c1` [Compound 283, 2-((4-bromopyridin-2-yl)methyl)-5-(2-chloro-4-fluorostyryl)-1,3,4-oxadiazole], for which the melting point was found to be 149.5 °C.

For the compound `Fc1ccc(/C=C/c2nnc(Cc3cccc(Cl)c3F)o2)c(Cl)c1` [Compound 291, 2-(3-chloro-2-fluorobenzyl)-5-(2-chloro-4-fluorostyryl)-1,3,4-oxadiazole], the melting point came to 118.1 °C.

`O=C(Nc1cccc(Br)c1)c1nnc(/C=C/c2ccc(F)cc2Cl)o1` [Compound 253, N-(3-bromophenyl)-5-(2-chloro-4-fluorostyryl)-1,3,4-oxadiazole-2-carboxamide]: the melting point was found to be 254.2 °C.

Consider `COC(=O)c1ccccc1/C=C/c1nnc(Cc2cccc(Br)c2)o1` [Compound 242, methyl-2-(2-(5-(3-bromobenzyl)-1,3,4-oxadiazol-2-yl)vinyl)benzoate], for which the melting point was 131.1 °C.

`O=C(O)c1ccccc1/C=C/c1nnc(Cc2cccc(Br)c2)o1` [Compound 243, 2-(2-(5-(3-bromobenzyl)-1,3,4-oxadiazol-2-yl)vinyl)benzoic acid] came in with a melting point of 167.7 °C.

The compound `Fc1ccc(/C=C/c2nnc(CCc3cccc(Br)c3)o2)c(Cl)c1` [Compound 223, 2-(3-bromophenethyl)-5-(2-chloro-4-fluorostyryl)-1,3,4-oxadiazole] had a melting point of 108.7 °C.

`FC(F)(F)Oc1ccccc1/C=C/c1nnc(Cc2cccc(Br)c2)o1` [Compound 256, 2-(3-bromobenzyl)-5-(2-(trifluoromethoxy)styryl)-1,3,4-oxadiazole] displayed a melting point of 103.6 °C.

The compound `Fc1ccc(/C=C/c2nnc(Cc3nccc4ccccc34)o2)c(Cl)c1` [Compound 237, 2-(2-chloro-4-fluorostyryl)-5-(isoquinolin-1-ylmethyl)-1,3,4-oxadiazole] yielded a melting point of 171.4 °C.

`Fc1ccc(/C=C/c2nnc(Cc3cccc(Br)c3F)o2)c(Cl)c1` [Compound 293, 2-(3-bromo-2-fluorobenzyl)-5-(2-chloro-4-fluorostyryl)-1,3,4-oxadiazole]: the melting point worked out at 135.8 °C.

Compound `Fc1ccc(/C=C/c2nnc(Cc3cccc(Br)c3)o2)c(Br)c1` [Compound 215, 2-(2-bromo-4-fluorostyryl)-5-(3-bromobenzyl)-1,3,4-oxadiazole] yielded a melting point of 129.5 °C.

As for `Cc1ccc(Cc2nnc(/C=C/c3ccc(F)cc3Cl)o2)cc1Cl` [Compound 300, 2-(2-chloro-4-fluorostyryl)-5-(3-chloro-4-methylbenzyl)-1,3,4-oxadiazole], the melting point was determined as 161.4 °C.

Compound `Oc1ccccc1/C=C/c1nnc(Cc2cccc(Br)c2)o1` [Compound 218, 2-(2-(5-(3-bromobenzyl)-1,3,4-oxadiazol-2-yl)vinyl)phenol] showed a melting point of 179.9 °C.
